Data as given in the NIST ThermoML archive (doi:10.1016/j.jct.2005.03.013).
Numbers after ± are expanded uncertainties.

What was measured:
[1] = molar heat capacity at constant pressure; details: 101.33 kPa, Liquid, Large sample (1 g) DSC
[2] = for viscosity: 101.33 kPa, Liquid

Row | SMILES | molar heat capacity at constant pressure ([1]; 298 K) | molar heat capacity at constant pressure ([1]; 323 K) | viscosity ([2]; 283 K) | viscosity ([2]; 293 K) | viscosity ([2]; 298 K) | viscosity ([2]; 303 K) | viscosity ([2]; 313 K) | viscosity ([2]; 323 K) | viscosity ([2]; 333 K) | viscosity ([2]; 343 K) | Glass transition temperature [2]
1 | CCOC(=O)c1ccc[n+](CC)c1.CCOS(=O)(=O)[O-] [3-(ethoxycarbonyl)-1-ethylpyridinium ethylsulfate] | 513 ± 52 J/K/mol | 530 ± 54 J/K/mol | 19610 ± 4800 mPa·s | 5675 ± 1200 mPa·s | 3173 ± 570 mPa·s | 1986 ± 310 mPa·s | 846 ± 110 mPa·s | 405 ± 40 mPa·s | 221 ± 17 mPa·s | 130 ± 9 mPa·s | -44 ± 3 °C
2 | CCCCCCn1cc[n+](C)c1.[Br-] [3-hexyl-1-methyl-1H-imidazolium bromide] | 344 ± 35 J/K/mol | 357 ± 36 J/K/mol | – | – | – | – | – | – | – | – | -49 ± 4 °C
